# Results published in a melting point compilation (Tetko et al.; mined from patent text by program, amines drawn as free bases though some values may be those of a salt).
row,SMILES,melting point [°C]
1,CCOC(=O)c1sc(SC)c2c1CCc1nc(C)oc1-2,131 to 132
2,N=c1sc2ccccc2n1C(C=O)c1ccc(Cl)cc1 (configuration not stated),114
3,Cc1noc(C)c1-c1ccc(C[C@H](NC(=O)c2c(Cl)cccc2Cl)C(=O)O)cc1,152
4,C=CCN(C1=NCCN1C)c1c(Cl)cccc1Cl,59 to 61
5,C(=CCON(c1ccccc1)c1ccccc1)CON(c1ccccc1)c1ccccc1,74 to 76
6,Cn1nc(OCCCc2cc(-c3ccc(C(F)(F)F)cc3)no2)cc1C(=O)O,162 to 163
7,OCc1ccn(-c2ccc(OC(F)(F)F)cc2)n1,53 to 54
8,CCN(CC)C(=O)c1ccc(C(c2cccc(O)c2)N2CC(C)N(CC#N)CC2C)cc1 (configuration not stated),190 to 192
9,O=[N+]([O-])Nc1ccnc(Cl)c1,163 to 164
10,N=C(CCCSc1nccc(NC(N)=NCC(F)(F)F)n1)NC(N)=O,112 to 115
11,Cc1ccnc2c1C(=O)CC(c1ccsc1)C2 (configuration not stated),92 to 93
12,COc1cc(C(=O)N2Cc3ccc(C(=O)NCc4ccc(C)cc4C)n3Cc3ccccc32)ccc1-c1ccccc1C,161 to 162
13,COc1ccc2nscc2c1,51 to 55
14,CCc1c(-c2ccc(O)cc2)c2ccc3ccc(CO)c1n32,154 to 156
15,CC(SC1COC(c2ccc(C(=O)Nc3ccc(CC#N)cc3)cc2)OC1)C(O)(Cn1cncn1)c1ccc(F)cc1F (configuration not stated),188
16,NC(=S)CCc1ccc([N+](=O)[O-])cc1,157 to 158
17,CN1CCN(c2cccc(-n3cnc4cc(C#N)ccc43)c2)CC1,158 to 160

row,SMILES,melting point [°C]
1,COc1ccc(N)c(SSc2cc(OC)ccc2N)c1,78 to 80
2,O=P(O)(O)CCCCCCCCCCCC(F)(F)C(F)(F)C(F)(F)C(F)(F)C(F)(F)C(F)(F)C(F)(F)C(F)(F)F,115 to 117
3,CCOC(=O)CCN(C1(C(=O)O)CCCC1)S(=O)(=O)c1ccc(Oc2ccc(F)cc2)cc1,164 to 166
4,CC(=NO)c1ccc2c(c1)C(c1ccccc1F)=NC(C)C(=O)N2C (configuration not stated),101 to 103
5,CCCc1cc(-c2noc3cc(OC)ccc23)ccc1OC,70 to 72
6,c1ccc2c(c1)CCc1ccc(-c3nnn[nH]3)cc1S2,205
7,O=c1cc(Cl)c2cc(OC(F)(F)F)ccc2o1,85 to 87
8,O=[N+]([O-])c1ccc2c(c1)S(=O)(=O)NCN2C1CC1,198 to 201
9,C[Si](C)(C)c1ccc2c(c1)C(CN1CCCCC1)c1cc([Si](C)(C)C)ccc1-2,107 to 108
10,CC(C)[C@H](NC(=O)/C=C/c1nccs1)C(=O)N[C@@H](Cc1ccccc1)[C@@H](O)[C@H](O)[C@H](Cc1ccccc1)NC(=O)[C@@H](NC(=O)/C=C/c1nccs1)C(C)C,> 260
11,O=C(c1ccc2ncccc2c1)c1ccc2nc(Cl)nc(-c3cccc(Cl)c3)c2c1,170
12,O=c1nc(NCCCn2ccnc2)n2c3c1cnn3C(c1cccc(F)c1)=CC2,256 to 258
13,OC(=S)c1cccnc1,84 to 86
14,Oc1ccc2c(c1)COc1c-2cc2ccc(O)cc2c1-c1ccccc1Cl,220 to 222
15,O=CNc1cc(F)ccc1F,112 to 114
16,COc1cc(-c2nc3ccccc3n2Cc2cccc(C)c2)cc(OC)c1OC,78
17,Nc1ccc(N2CCN(CCCC3CCCC3)C2=O)cc1,97 to 99

# More lines, now with the values ahead:
row,melting point [°C],SMILES
1,225,O=C1NCc2c1ccc(Nc1ccccc1)c2Nc1ccccc1
2,155,O=S1(=O)CC(c2ccc(F)cc2)CN1 (configuration not stated)
3,174 to 175,COC(=O)[C@@H](Cc1ccccc1)Oc1c(Br)cc(-c2c3ccccc3c(Br)c3sc(C)c(C)c23)cc1Br
4,146,CC(C)CNC(=O)COC1c2ccccc2C(=O)N1c1ccc2ccc(Cl)nc2n1 (configuration not stated)
5,251 to 253,O=C(O)c1ccc(OCc2ccccc2)c(C23CC4CC(CC(C4)C2)C3)c1
6,284 to 285,Cn1cc(C(=O)O)c(=O)c2cc(F)c(-n3cccc3)cc21
7,66 to 71,CC(C)NC(=O)CCC(=NNC(N)=S)c1ccccc1
8,138,CNC(=O)Nc1ccc(Oc2ccc3sncc3c2)c(C(F)(F)F)c1
9,157 to 158,O=C(Nc1ccc(Br)c(C(F)(F)F)c1)c1ccccc1[N+](=O)[O-]
10,178 to 179,CCS(=O)(=O)c1ccc(C(CC2CCCC2)C(=O)Nc2nccs2)cc1 (configuration not stated)
11,55,Cc1cc2ccccc2c(Cl)c1C
12,190 to 192,CS(=O)(=O)c1ccc(-c2c(-c3ccccc3)nc3sccn23)cc1
13,207,CC(C)(C(=O)O)c1cc(C(=O)c2ccccc2)ccc1O
14,90 to 92,O=C(c1ccccc1)N1CCCSC1=C[N+](=O)[O-]
15,141 to 144,Cc1ccc(C(=O)NCc2ccccc2)cc1-c1nc(NCCCN(C)C)nc2c1CNC(=O)N2c1c(F)cccc1F
16,124 to 126,O=C(c1ccccc1)c1cc([N+](=O)[O-])ccc1OCCO
17,148 to 151,O=C(O)CCC(=O)NCC(=O)N1c2ccccc2N(Cc2ccccc2)C(=O)[C@H]2CCC[C@H]21 (relative stereo)
18,129 to 131,O=C(O)CCCCCc1cnc2ccccc2c1
19,119 to 120,O=C1CC2OC(CS(=O)c3ccccc3)CN12 (racemic)

row,melting point [°C],SMILES
1,127 to 128,O=c1cc(-c2ccc(Cl)cc2)oc2ccc(OCCCCCCN3CCC(O)CC3)cc12
2,85 to 89,O=[N+]([O-])c1ccccc1N1CCc2cc(Cl)ccc21
3,342,COc1ccc(-c2sc(NC(C)=O)nc2C)cc1S(N)(=O)=O
4,141,NCC(=O)NCCCn1cc(-c2ccccc2)c2ccccc2c1=O
5,110 to 112,COC(=O)C1(Cc2c[nH]c3ccccc23)CC(N=[N+]=[N-])C(=O)O1 (configuration not stated)
6,167 to 168,CCOC(=O)c1cn(C2CC2)c2c(F)c(F)c(F)cc2c1=O
7,147 to 150,Cc1c(C)c2c(c(C)c1N)CC(C)(CN1C(=O)c3ccccc3C1=O)O2 (configuration not stated)
8,397 to 399,O=C(O)c1ccc2nc(-c3ccc(F)cc3)[nH]c(=O)c2c1
9,53 to 55,CC(C)(C)OC(=O)NN(Cc1ccc(Cl)cc1)C(=O)OCC1c2ccccc2-c2ccccc21
10,106 to 108,CC(=O)C(C(=O)c1ccccc1)=C1CCCN1
11,250 to 252,CCCc1c(/C=C/c2ccccc2)nc2ccc(C(=O)O)cn2c1=O
12,94 to 99,COc1c(Cl)ccnc1CSc1nc2cc(OC(F)F)ccc2[nH]1
13,> 300,N#Cc1ccc2[nH]c(=O)c3ccccc3c(=O)c2c1
14,205 to 207,COc1ccc(Cn2nc(-n3cnn(Cc4ccc(F)cc4)c3=O)cc2C(=O)O)cc1
15,67 to 69,COC(=O)c1cccn2ccnc12
16,147,CN(CCOc1ccc(C(N)=O)cc1)CCc1ccc(NS(C)(=O)=O)cc1
17,107 to 108,O=C(CCl)N1CCOc2ccccc21
18,257 to 261,CC(C)n1nc(-c2c(OCC(N)=O)nc(N)nc2-c2ccccc2)ccc1=O
19,215 to 220,O=C1c2ccccc2C(=O)N1Cc1cc2ccccc2[nH]1
